# Results as given in patent US10669272B2, “Substituted naphthyridinone compounds useful as T cell activators” (BRISTOL-MYERS SQUIBB COMPANY, priority 2018, dated 2020).
# Like-named read-outs stand apart in the source and are kept apart here.
# What was measured:
# human DGKα = molecular target: T1, human DGKα (Homo sapiens, UniProt P23743); assay: DGKα LIPGLO assay (extruded liposome substrate), in vitro DGK inhibition; format: biochemical; settings: liposome (LIPGLO) assay; read-out: DGKa LIPGLO IC50
# T1 construct: TVMV protease cleavage site (C); Hexa-His (C); made in house; host or cells: Sf9 insect cells (baculovirus, Bac-to-Bac)
# T1 sequence (P23743 with tags, fused parts or gaps): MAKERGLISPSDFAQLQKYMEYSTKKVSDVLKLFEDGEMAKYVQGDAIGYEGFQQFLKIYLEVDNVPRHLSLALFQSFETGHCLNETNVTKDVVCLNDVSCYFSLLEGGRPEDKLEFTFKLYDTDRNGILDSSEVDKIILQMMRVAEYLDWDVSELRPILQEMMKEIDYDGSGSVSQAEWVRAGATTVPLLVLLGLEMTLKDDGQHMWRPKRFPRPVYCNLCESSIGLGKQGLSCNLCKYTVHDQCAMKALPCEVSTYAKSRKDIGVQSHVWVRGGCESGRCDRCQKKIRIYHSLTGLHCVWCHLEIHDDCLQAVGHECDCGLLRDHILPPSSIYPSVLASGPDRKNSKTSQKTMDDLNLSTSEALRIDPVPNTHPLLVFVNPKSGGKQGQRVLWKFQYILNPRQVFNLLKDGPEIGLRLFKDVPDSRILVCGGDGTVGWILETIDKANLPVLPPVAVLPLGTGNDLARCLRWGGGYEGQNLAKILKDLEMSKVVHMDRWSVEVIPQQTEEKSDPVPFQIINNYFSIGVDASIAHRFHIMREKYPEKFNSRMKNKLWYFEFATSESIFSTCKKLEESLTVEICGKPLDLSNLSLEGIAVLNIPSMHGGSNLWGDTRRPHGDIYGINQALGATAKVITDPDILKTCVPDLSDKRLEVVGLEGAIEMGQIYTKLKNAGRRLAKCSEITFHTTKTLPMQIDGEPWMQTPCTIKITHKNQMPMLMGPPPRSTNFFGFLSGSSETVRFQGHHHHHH
# human DGKζ = molecular target: T2, human DGKζ (Homo sapiens, UniProt Q13574); assay: DGKζ LIPGLO assay (extruded liposome substrate), in vitro DGK inhibition; format: biochemical; settings: liposome (LIPGLO) assay; read-out: DGKz LIPGLO IC50
# T2 construct: TVMV protease cleavage site (C); Hexa-His (C); made in house; host or cells: Sf9 insect cells (baculovirus, Bac-to-Bac)
# T2 sequence (Q13574 with tags, fused parts or gaps isoform Q13574-4): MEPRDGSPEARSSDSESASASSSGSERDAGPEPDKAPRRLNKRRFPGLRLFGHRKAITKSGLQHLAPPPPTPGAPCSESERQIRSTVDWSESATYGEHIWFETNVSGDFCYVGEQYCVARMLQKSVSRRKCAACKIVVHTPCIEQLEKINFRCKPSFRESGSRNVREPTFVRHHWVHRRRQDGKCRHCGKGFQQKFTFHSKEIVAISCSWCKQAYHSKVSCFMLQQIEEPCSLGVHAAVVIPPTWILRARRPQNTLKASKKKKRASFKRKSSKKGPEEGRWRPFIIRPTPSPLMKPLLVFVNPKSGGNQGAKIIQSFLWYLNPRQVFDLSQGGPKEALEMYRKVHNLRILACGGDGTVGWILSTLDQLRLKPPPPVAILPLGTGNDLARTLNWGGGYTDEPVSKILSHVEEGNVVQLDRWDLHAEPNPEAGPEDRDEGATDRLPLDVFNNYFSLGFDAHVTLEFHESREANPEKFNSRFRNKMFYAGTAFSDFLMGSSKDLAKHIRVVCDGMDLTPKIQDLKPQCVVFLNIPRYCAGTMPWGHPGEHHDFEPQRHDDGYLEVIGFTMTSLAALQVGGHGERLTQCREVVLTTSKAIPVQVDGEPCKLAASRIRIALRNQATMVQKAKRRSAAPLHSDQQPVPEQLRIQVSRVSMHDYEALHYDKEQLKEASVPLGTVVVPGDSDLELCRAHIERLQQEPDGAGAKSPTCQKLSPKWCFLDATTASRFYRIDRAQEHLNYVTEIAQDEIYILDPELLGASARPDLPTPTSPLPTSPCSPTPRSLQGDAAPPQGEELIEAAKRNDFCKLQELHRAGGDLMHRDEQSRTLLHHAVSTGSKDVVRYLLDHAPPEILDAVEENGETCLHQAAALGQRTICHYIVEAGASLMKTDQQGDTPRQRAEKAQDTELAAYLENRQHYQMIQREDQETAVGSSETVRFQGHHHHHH
# Human venous whole blood = assay: Human whole blood IFN-γ assay; format: cell-based; settings: human whole blood, normalized to 3 μM reference compound with anti-CD3 plus anti-CD28 as 100% activation, read-out: INFg Whole Blood Normalized Agonist EC50;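 further: blood from healthy donors exposed to compound for 1 h before stimulation with anti-CD3 and anti-CD28 at 1 µg/mL each, IFN-γ quantified in supernatant by AlphaLISA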
Compound,IC50 (human DGKα),IC50 (human DGKζ),"EC50 (Human venous whole blood; Homo sapiens, 24 h)",EC50 (Human venous whole blood)
C[C@@H]1CN(c2cc(=O)n(C)c3ccc(C#N)nc23)[C@@H](C)CN1Cc1ccc(OC(F)(F)F)cc1Br [Example 593],3100 nM,5900 nM,1200 nM,–
CCn1cc(F)c2c(CN3C[C@H](C)N(c4cc(=O)n(C)c5ccc(C#N)nc45)C[C@H]3C)cccc21 [Example 596],8900 nM,580 nM,15000 nM,–
COc1ccc(OC(F)(F)F)cc1CN1C[C@H](C)N(c2cc(=O)n(C)c3ccc(C#N)nc23)C[C@H]1C [Example 601],2100 nM,7700 nM,3300 nM,–
CC(C)c1ccc(CN2C[C@H](C)N(c3cc(=O)n(C)c4ccc(C#N)nc34)C[C@H]2C)cc1 [Example 602],850 nM,3700 nM,1100 nM,–
C[C@@H]1CN(c2cc(=O)n(C)c3ccc(C#N)nc23)[C@@H](C)CN1Cc1ccc(Cl)cc1 [Example 604],310 nM,2000 nM,4800 nM,–
C[C@@H]1CN(c2cc(=O)n(C)c3ccc(C#N)nc23)[C@@H](C)CN1Cc1cccc2c1ccn2C [Example 606],5200 nM,66 nM,1100 nM,–
C[C@@H]1CN(c2cc(=O)n(C)c3ccc(C#N)nc23)[C@@H](C)CN1Cc1ccc(OC(F)(F)F)cc1Cl [Example 607],1900 nM,7600 nM,2000 nM,–
C[C@@H]1CN(c2cc(=O)n(C)c3ccc(C#N)nc23)[C@@H](C)CN1Cc1ccc(OC(F)(F)F)cc1 [Example 609],21 nM,13000 nM,2200 nM,–
C[C@@H]1CN(c2cc(=O)n(C)c3ccc(C#N)nc23)[C@@H](C)CN1Cc1ccc(OC(F)(F)F)c(F)c1 [Example 610],690 nM,13000 nM,1800 nM,–
C[C@@H]1CN(c2cc(=O)n(C)c3ccc(C#N)nc23)[C@@H](C)CN1Cc1ccc(OC(F)(F)F)c(Cl)c1 [Example 611],6800 nM,21000 nM,3700 nM,–
C[C@@H]1CN(c2cc(=O)n(C)c3ccc(C#N)nc23)[C@@H](C)CN1CC1CCOCC1 [Example 623],130000 nM,> 250000 nM,20000 nM,–
C[C@@H]1CN(c2cc(=O)n(C)c3ccc(C#N)nc23)[C@@H](C)CN1C(c1ccc(O)cc1F)C(F)(F)F (stereo partly drawn) [Example 625],230 nM,2400 nM,700 nM,–

# Second part, led by results:
IC50 (human DGKα),IC50 (human DGKζ),Compound,"EC50 (Human venous whole blood; Homo sapiens, 24 h)",EC50 (Human venous whole blood)
1700 nM,7900 nM,C[C@@H]1CN(c2cc(=O)n(C)c3ccc(C#N)nc23)[C@@H](C)CN1C(c1ccc(O)cc1)C(F)(F)F (stereo partly drawn) [Example 626],2500 nM,–
11000 nM,18000 nM,C[C@@H]1CN(c2cc(=O)n(C)c3ccc(C#N)nc23)[C@@H](C)CN1Cc1ccc(OC(F)(F)F)c(Br)c1 [Example 629],4200 nM,–
4300 nM,9000 nM,C[C@@H]1CN(c2cc(=O)n(C)c3ccc(C#N)nc23)[C@@H](C)CN1Cc1cccc2c1OCCN2 [Example 634],2900 nM,–
690 nM,590 nM,COc1ccc(C(c2ccc(F)cc2)N2C[C@H](C)N(c3cc(=O)n(C)c4ccc(C#N)nc34)C[C@H]2C)cc1 (stereo partly drawn) [Example 658],–,1500 nM
1400 nM,310 nM,COc1ccc(C(c2ccc(F)cc2)N2C[C@H](C)N(c3cc(=O)n(C)c4ccc(C#N)nc34)C[C@H]2C)cc1 (stereo partly drawn) [Example 659],–,17000 nM
62 nM,5400 nM,C[C@@H]1CN(c2cc(=O)n(C)c3ccc(C#N)nc23)[C@@H](C)CN1C(c1ccc(F)cc1)c1ncccn1 (stereo partly drawn) [Example 676],1800 nM,–
150 nM,2700 nM,C[C@@H]1CN(c2cc(=O)n(C)c3ccc(C#N)nc23)[C@@H](C)CN1C(c1ccc(F)cc1)c1ncccn1 (stereo partly drawn) [Example 677],–,1800 nM
3600 nM,1500 nM,C[C@@H]1CN(c2cc(=O)n(C)c3ccc(C#N)nc23)[C@@H](C)CN1C(c1ccc(F)cc1)c1cccc(C(F)(F)F)n1 (stereo partly drawn) [Example 678],–,440 nM
